Source: article PMC8398714, “Synthesis and Evaluation of Biological Activities of Bis(spiropyrazolone)cyclopropanes: A Potential Application against Leishmaniasis” (Molecules, 2021)
Where two headings read alike, the source gives them in different places.

Key:
[1] = Cytotoxicity, MTT assay on RAW 264.7 macrophages; type: cell-based; conditions: mouse
Procedure: Raw 264.7 (ATCC® TIB-71™) was maintained in Dulbecco’s Modified Eagle Medium (DMEM) (Gibco, Invitrogen, Gibco, Carlsbad, CA, USA) supplemented with 10% fetal bovine serum (FBS) (Eurobio, Les Ulis, France) and 100 IU/mL penicillin + 100 μg/mL streptomycin (Gibco), at 37 °C in a 5% CO2 atmosphere. The medium was renewed once a week. The viability was determined using MTT (Thiazolyl Blue Tetrazolium Bromide) dye assay as described before for leishmanicidal activity assessment, with some variations. Here, 5 × 10^4 cells/well in a final volume of 100 µL were deposited into a 96-well plate, in triplicate. Saponin (2.4 mg/mL) and untreated cells were used as positive control and negative control, respectively. A stock solution was prepared in DMSO and immediately diluted in media to obtain different serial concentrations (100–0.01 µM). After 48 h exposure to the compounds, 10 µL/well of MTT (5 mg/mL MTT in PBS) were added, and the plate was incubated at 37 °C for 2 h in the dark. Cells were pelleted by centrifugation at 4400 rpm for 10 min and the media was removed. Then, 100 µL/well of DMSO were added and the absorbance at 570 nm was recorded; a reference wavelength of 630 nm was used for background subtraction.

MCF-7 = test: MTS cell viability assay on MCF-7 cells; type: cell-based; conditions: Homo sapiens, Dox 1 µM, mean ± SEM, NA = no activity, read-out: Percentage (%) of inhibition, MCF-7
Procedure: (§1) Five tumor human cancer cell lines—cerebral astrocytoma (D-384), grade IV prostatic adenocarcinoma (PC-3), mammary adenocarcinoma (MCF-7), human colon carcinoma (RKO) and lung carcinoma (A-549)—along with one immortalized hamster cell line (CHO K-1) were used. The cells PC-3, MCF-7 and RKO were cultured in RPMI-1640, D-384 on DMEM and CHO K-1 on HAM F-12 medium supplemented with 10% fetal bovine serum (FBS, Invitrogen, Karlsruhe, Germany), 1% antibiotic-antimitotic solution (100 units/mL penicillin G, 100 µg/mL streptomycin, and 0.25 µg/mL amphotericin B, Gibco, Grand Island, NY, USA), and 1% L-glutamine (2 mM, Gibco). The cells were incubated at 37 °C in a 5% CO2 atmosphere. The viable cells were counted using the trypan blue exclusion method in a hemocytometer.
(§2) The MTS (5-[3-(carboxymethoxy)phenyl]-3-(4,5-dimethyl-2-thiazolyl)-2-(4-sulfo- phenyl)-2H-tetrazolium inner salt) cell viability assay was used to assess the inhibitory effects of the extracts on the survival of human cancer cell lines. A total of 3–5 × 10^3 cells/well were seeded into 96-well plates and were allowed to adhere for 24 h. […] Each concentration/assay was performed three times. Dimethyl sulfoxide (DMSO) was used as a negative control at a final concentration of 0.1% v/v, and 1 µM Doxorubicin was used as a positive control. The cells were incubated with the treatments for 48 h, after which 20 µL MTS (5 mg/mL, Aqueous One Solution Reagent, Gibco) was added and further incubated for 4 h at 37 °C. The absorbance was measured at 570 nm. The data obtained with cells treated with DMSO were defined to represent 100% viability.

[2] = DPPH radical scavenging assay; conditions: 30 min, 515 nm
Procedure: The stock solution of the compounds was prepared by dissolving 4 in dimethyl sulfoxide (DMSO) to a concentration of 4 mg/mL. The solution was diluted with methanol until a concentration of 400 µg/mL was obtained and then used immediately.
The experimental procedure was adapted from the literature. Briefly, 100 µL of a 0.2 mM methanol solution of DPPH (2, 2-diphenyl-1-picrylhydrazyl) radical were added to 100 µL of methanolic solutions of 4 prepared as serial two-fold dilutions from the stock solution in 96-well microfilter plates. Standards and edaravone were also prepared in the same concentrations. The mixture was incubated in dark at room temperature for 30 min and the absorbance was read at 515 nm on a Cytation 5 (BioTek) spectrophotometer.
The % DPPH scavenging activity was then calculated by using the following formula:(1) % DPPH scavenging = 100 × [(Asample+DPPH−Asample blank)/(ADPPH−Asolvent)]
The antioxidant activity of the compound was expressed as IC50, which is defined as the concentration that could scavenge 50% of the DPPH free radical. The IC50 values were calculated in GraphPad Prism 7.02 (GraphPad Software, Corp.) The results are given as a mean ± standard deviation (SD) of experiments done in triplicate.

A-549 = test: MTS cell viability assay on A-549 cells; type: cell-based; conditions: Homo sapiens, A549; 100 µM, 48 h; Dox 1 µM; mean ± SEM; NA = no activity; read-out: Percentage (%) of inhibition, A-549
Procedure: as §1, §2

[3] = test system: promastigotes of Leishmania mexicana; test: Leishmanicidal activity, MTT assay on promastigotes; type: cell-based; conditions: for SI (Selectivity Index) = Citotoxic activity/Leishmanicidal activity: CC50 RAW / IC50 L. mexicana; for IC50: Leishmania mexicana
Procedure: The leishmanicidal activity of all compounds was evaluated by measuring promastigotes’ mitochondrial activity using MTT colorimetric assay as described previously. In this study, promastigotes from Leishmania mexicana were used. The species were confirmed by amplifying and sequencing cytochrome b gene. Promastigotes were cultured at 25 °C in Schneider’s Drosophila Medium (Gibco, Invitrogen, Carlsbad, CA, USA) supplemented with 10% fetal bovine serum (Eurobio, Les Ulis, France). The medium was renewed every third day. Parasite density was determined by counting the cells using a Neubauer chamber.
Into each well of a 96-well plate were dispensed 1 × 10^6 parasites/well. A stock solution of the compounds was prepared in DMSO (Sigma Aldrich, Saint Louis, MO, USA), and serial dilutions were added to the parasite suspension, leading to concentrations ranging from 100 to 0.001 µM, keeping the solvent concentration at 0.5%. The final volume was 200 µL for each well and triplicate conditions were carried out. Amphotericin B (Gibco) treatment (1 µM) untreated parasites and DMSO 0.5% were used as positive and negative controls, respectively. After exposure to the compounds for 48 h in culture medium, 20 µL of a solution of 5 mg/mL MTT dissolved in PBS were added to each well. The plate was incubated at 25 °C for 2 h in darkness. The plate was then centrifuged at 4400 rpm for 10 min and the culture medium was then aspirated; 50 µL of DMSO were added into each well to solubilize the formazan crystals and the plate was shaken for 5 min and then it was measured by recording changes in absorbance at 570 nm using a microplate reader Cytation 5 (BioTek) spectrophotometer. A reference wavelength of 630 nm was used as background subtraction. Optical densities were analyzed because the quantity of formazan is directly proportional to the number of viable parasites. Data were analyzed with the statistical software GraphPad Prism 7.02 (GraphPad Software, Corp.).

PC-3 = test: MTS cell viability assay on PC-3 cells; type: cell-based; conditions: Homo sapiens, 48 h
Procedure: as §1, §2

CHO-K1 = test: MTS cell viability assay on immortalized CHO-K1 cells; type: cell-based, hamster; conditions: 48 h, Dox 1 µM, mean ± SEM, NA = no activity, read-out: Percentage (%) of inhibition, CHO-K1
Procedure: as §1, §2

HeLa = test: MTS cell viability assay on HeLa cells; type: cell-based; conditions: Homo sapiens, 48 h, Dox 1 µM, mean ± SEM, NA = no activity, read-out: Percentage (%) of inhibition, HeLa
RKO = test: MTS cell viability assay on RKO cells; type: cell-based; conditions: Homo sapiens, 48 h
Procedure: as §1, §2

[4] = MTS cell viability assay on A-549 cells; type: cell-based; conditions: Homo sapiens; 48 h, 15-150 µM, mean ± SEM of triplicates
Procedure: as §1, §2

[5] = test system: Leishmania mexicana cells; test: Comet assay of Leishmania mexicana cells; type: cell-based; design: Comet tail length, mean (vary) / Comet tail length, median (Q50): unit not given here; conditions: L. mexicana, 24 h at MIC; MMS 0.011%; Kruskal-Wallis $means
Procedure: We quantified DNA breaks by a comet assay to determine if these compounds are genotoxic. Here, L. mexicana cells were exposed for 24 h to MIC concentrations previously determined (see Materials and Methods Section) for each compound. Figure 1 represents the measurements obtained for tail length. All compounds generated DNA breaks expect 4s. […] Samples with DMSO and MMS (0.011%) were included as controls. Some representative pictures are shown at Figure S4. The effect of 4p could not be determined because the cells appear to be very damaged. The data was subjected via a Kruskal–Wallis one-way ANOVA (Statistical Analyses S2). […] These observations support a mechanism of action through the generation of DNA damage.
For leishmania, a method previously described for yeast was adapted. Briefly, after incubating the cells in presence of the compounds for 24 h, cells were collected and washed with buffer S (1 M sorbitol, 25 mM KH2PO4 in ultrapure water and adjust to pH 6.5 with NaOH). The pellet was resuspended in 400 µL of 1.5% LMA and 40 µL was spread (second layer) onto previously agarose-coated slides (first layer).
Slides were immersed in cold lysis buffer (30 mM NaOH, 1 M NaCl, 0.05 % (w/v) lauroylsarcosine, 50 mM EDTA, and 10 mM Tris–HCl, pH 10) for 25 min and then in cold electrophoresis alkaline buffer (30 mM NaOH, 10 mM EDTA, and 10 mM Tris–HCl, pH 10). They were then subjected to electrophoresis at 26V and 300 mA. Slides were immersed in neutralization buffer (10 mM Tris–HCl, pH 7.4; prepared in advance and stored at 4 °C) for 10 min at room temperature. The cells were then treated with proteinase K (20 min, 37 °C in humid chamber), followed by a new neutralization step. To dehydrate the slides, they were immersed in EtOH 90% and EtOH absolute for 10 min each. Finally, the slides were stained with Sybr Gold 1X.
The DNA migration was analyzed using a LEICA microscope with fluorescence (40×) by scoring 100 cells per slide in duplicate. The tail moment parameter was then analyzed by the Comet Score software.

[6] = RAW cells, 48 h, MTT, read-out: Cytotoxicity CC50
[7] = read-out: IC50 original values, x.1 (Mean)
[8] = L. mexicana promastigotes, 48 h, MTT, read-out: Leishmanicidal Activity IC50
[9] = 100 µM, Dox 1 µM, mean ± SEM, NA = no activity, read-out: Percentage (%) of inhibition, PC-3
[10] = 100 µM, Dox 1 µM, mean ± SEM, NA = no activity, read-out: Percentage (%) of inhibition, RKO
[11] = 15-150 µM, mean ± SEM of triplicates

Structure (SMILES): Cc1nn(-c2ccccc2)c(O)c1C(c1cc(O)ccc1[N+](=O)[O-])c1c(C)nn(-c2ccccc2)c1O
- melting point: 205 to 207 °C (dec.)

Structure (SMILES): COC1C=C(C(c2c(C)nn(-c3ccccc3)c2O)c2c(C)nn(-c3ccccc3)c2O)C=CC1(O)OC (stereo not drawn)
- melting point: 208 to 210 °C

Structure (SMILES): CC1=NN(c2ccccc2)C(=O)C1=Cc1ccc(N(C)C)cc1
- melting point: 190.7 to 193.2 °C

Structure (SMILES): CC1=NN(c2ccccc2)C(=O)C12CC21C(=O)N(c2ccccc2)N=C1C (stereo not drawn)
- melting point: 165.8 to 167.9 °C

Structure (SMILES): CC1=NN(c2ccccc2)C(=O)[C@@]12C(c1ccc(F)cc1)[C@@]21C(=O)N(c2ccccc2)N=C1C (relative stereo) [4p, (5R*,6R*)-11-(4-Fluorophenyl)-4,10-dimethyl-2,8-diphenyl-2,3,8,9-tetraazadispiro[4.0.4.1]undeca-3,9-diene-1,7-dione]
- CC50 at 48 h [1, 6]: 3500 ± 900 nM
- CC50 at 48 h ([1]; Statistical Analyses S1, unrounded mean of CC50 in RAW cells, unit inferred, read-out: CC50 original values, x.1 (Mean)): 3550 nM
- inhibition at 100 µM (MCF-7; MCF7, 48 h): 13.6 ± 2.55%
- IC50 [2]: > 300000 nM
- inhibition at 100 µM (A-549): 9.08 ± 1.14%
- SI (Selectivity Index) = Citotoxic activity/Leishmanicidal activity [3]: 6.1
- IC50 [3, 7]: 575 nM
- IC50 [3, 8]: 570 ± 230 nM
- melting point: 128.9 to 129.9 °C
- inhibition at 100 µM (PC-3; [9]): 5.25 ± 2.6%
- inhibition at 100 µM (CHO-K1): 1.95 ± 1.42%
- inhibition at 100 µM (HeLa): 5.98 ± 2.19%
- inhibition at 100 µM (RKO; [10]): 18.6 ± 1.37%

Structure (SMILES): C[C@@H]1[C@H](O)[C@@H](C)/C=C/C=C/C=C/C=C/C=C/C=C/C=C/[C@H](O[C@@H]2O[C@H](C)[C@@H](O)[C@H](N)[C@@H]2O)C[C@@H]2O[C@](O)(C[C@@H](O)C[C@@H](O)[C@H](O)CC[C@@H](O)C[C@@H](O)CC(=O)O[C@H]1C)C[C@H](O)[C@H]2C(=O)O [Ampho B, Amphotericin B, reference compound]
- CC50 at 48 h [1, 6]: > 5400 nM
- SI (Selectivity Index) = Citotoxic activity/Leishmanicidal activity [3]: >31.8
- IC50 [3, 7]: 172 nM
- IC50 [3, 8]: 170 ± 70 nM

Structure (SMILES): O=C1O[C@H]([C@@H](O)CO)C(O)=C1O [Ascorbic acid, ascorbic acid, reference compound]
- IC50 [2]: 14000 nM

Structure (SMILES): COc1cccc2c1C(=O)c1c(O)c3c(c(O)c1C2=O)C[C@@](O)(C(=O)CO)C[C@@H]3O[C@H]1C[C@H](N)[C@H](O)[C@H](C)O1 [Dox, Doxorubicin, reference compound]
- inhibition at 1 µM (MCF-7; MCF7, 100 µM, 48 h): 46.2 ± 7.77%
- IC50 [4]: 1230 ± 100 nM
- inhibition at 1 µM (A-549): 9.16 ± 2.16%
- inhibition at 1 µM (PC-3; [9]): 88 ± 1.65%
- IC50 (PC-3; [11]): 650 ± 80 nM
- inhibition at 1 µM (CHO-K1; 100 µM): 2.62 ± 1.42%
- inhibition at 1 µM (HeLa; 100 µM): 9.18 ± 9.55%
- inhibition at 1 µM (RKO; [10]): 85.6 ± 1.06%
- IC50 (RKO; [11]): 510 ± 10 nM

Structure (SMILES): COS(C)(=O)=O [MMS, methyl methanesulfonate, reference compound]
- Comet tail length, mean (vary) [5]: 67050000
- Comet tail length, median (Q50) [5]: 65000000
